This note sets out measurements from patent publication US20110214196A1, “DEVELOPMENT OF HERBICIDE-RESISTANT GRASS SPECIES” (University of Georgia Research Foundation, priority 2008, published 2011).

The test system of assay [1] is Large crabgrass (Digitaria sanguinalis) F2. The assay is described as follows: Large crabgrass dose response study, F2 from self-pollinated surviving plants. The assay is classed as in vivo. As for the experimental part: (§1) Plants were grown from seed collected from a turfgrass sod farm near where sethoxydim had been continuously used for twelve years. Seeds were planted in 250 mL styrofoam cups with a potting mixture of pure sand in a glasshouse with supplemental lighting (300 uE/m2/s) and 30/25 temperature. Plants were watered once daily and fertilized once a week. Large crabgrass plants were treated with herbicides when 3-5 cm tall in a dose response study. Four herbicides (sethoxydim, fluazifop, clethodim, and pinoxaden) were applied at […]. Plant injury was observed 7 and 14 DAT. The experimental design consisted of a randomized complete block design with three replications. The experiment was replicated in time.
In response to all four herbicides, the plants initially illutrated typical ACCase symptomology, but recovered in 7-14 days after treatment (DAT). […] Seeds from self-pollinated surviving large crabgrass plants were collected and analyzed using the same dose response design as state before. […] The ED50 was approximately 10 times greater for the resistant (R) population than that for the wild type (S) population.

Assay [2] has as its system Large crabgrass (Digitaria sanguinalis). The experiment in a line: Large crabgrass dose response study, plants from sod farm seed. Type of assay: in vivo. To be noted: for resistance or susceptibility of this population of large crabgrass: conclusion from ED50 values; for effective dose required to cause 50% injury (ED50): large crabgrass grown from sod farm seed, treated when 3-5 cm tall. On the procedure: as §1

On to `CCc1cc(C)cc(CC)c1-c1c(OC(=O)C(C)(C)C)n2n(c1=O)CCOCC2` [pinoxaden], for which the “effective dose required to cause 50% injury (ED50)” value in assay [1] stood at 131±44 g ai/ha. Further, in assay [2], the “resistance or susceptibility of this population of large crabgrass” value is recorded as “resistant” and the “effective dose required to cause 50% injury (ED50)” value is listed as 168±29 g ai/ha.

For the compound `CCSC(C)CC1CC(=O)C(/C(CC)=N/OC/C=C/Cl)=C(O)C1` (racemic) [clethodim, (E,E)-(±)-2-[1-[[(3-chloro-2-propenyl)oxy]imino]propyl]-5-[2-(ethylthio)propyl]-3-hydroxy-2-cyclohexen-1-one], the “effective dose required to cause 50% injury (ED50)” value in assay [1] was 28±22 g ai/ha. In assay [2], the “resistance or susceptibility of this population of large crabgrass” value is given as “susceptible” and the “effective dose required to cause 50% injury (ED50)” value is on record as 51±4 g ai/ha.
